In ChEMBL document CHEMBL6087476, “Positive Charge-Concentrated Dimeric Lipopeptides with Enhanced Protease Resistance: A Potential Solution for Systemic Bacterial Infections” (J Med Chem, 2025):
In brackets after ≈: the same amount, converted by molar mass.

Key:
Escherichia coli [1] = assay: Antimicrobial activity against Escherichia coli ATCC 25922 assessed as increase in absorbance incubated for 20 to 22 hrs; assay type: functional; settings: time 20-22 hrs
Escherichia coli [2] = assay: Antimicrobial activity against Escherichia coli K88 assessed as increase in absorbance incubated for 20 to 22 hrs; assay type: functional; settings: time 20-22 hrs
Escherichia coli [3] = assay: Antimicrobial activity against Escherichia coli K99 assessed as increase in absorbance incubated for 20 to 22 hrs; assay type: functional; settings: time 20-22 hrs
Salmonella typhimurium [4] = assay: Antimicrobial activity against Salmonella typhimurium 7731 assessed as increase in absorbance incubated for 20 to 22 hrs; assay type: functional, Salmonella enterica subsp. enterica serovar Typhimurium; settings: Salmonella enterica, time 20-22 hrs
Salmonella typhimurium [5] = assay: Antimicrobial activity against Salmonella typhimurium 14028 assessed as increase in absorbance incubated for 20 to 22 hrs; assay type: functional, Salmonella enterica subsp. enterica serovar Typhimurium; settings: Salmonella enterica, time 20-22 hrs
Pseudomonas aeruginosa = assay: Antimicrobial activity against Pseudomonas aeruginosa 27853 assessed as increase in absorbance incubated for 20 to 22 hrs; assay type: functional; settings: time 20-22 hrs
Staphylococcus aureus [6] = assay: Antimicrobial activity against Staphylococcus aureus 29213 assessed as increase in absorbance incubated for 20 to 22 hrs; assay type: functional; settings: time 20-22 hrs
Enterococcus faecalis = assay: Antimicrobial activity against Enterococcus faecalis 29212 assessed as increase in absorbance incubated for 20 to 22 hrs; assay type: functional; settings: time 20-22 hrs
Staphylococcus aureus [7] = assay: Antimicrobial activity against Staphylococcus aureus 25923 assessed as increase in absorbance incubated for 20 to 22 hrs; assay type: functional; settings: time 20-22 hrs
Staphylococcus aureus [8] = assay: Antimicrobial activity against methicillin-resistant Staphylococcus aureus 43300 assessed as increase in absorbance incubated for 20 to 22 hrs; assay type: functional; settings: time 20-22 hrs
[9] = test system: Staphylococcus epidermidis; assay: Antimicrobial activity against Staphylococcus epidermidis 12228 assessed as increase in absorbance incubated for 20 to 22 hrs; assay type: functional; settings: time 20-22 hrs
[10] = Hemolytic activity in healthy human RBC assessed as hemolysis incubated for 1 hr by microplate reader; assay type: toxicity, cell-based; settings: erythrocyte
[11] = Cytotoxicity against porcine IPEC-J2 cells assessed as cell death measured after 18 to 24 hrs by MTT assay; assay type: functional; settings: Sus scrofa, time 18-24 hrs
RAW264.7 = assay: Cytotoxicity against mouse RAW264.7 cells assessed as cell death measured after 18 to 24 hrs by MTT assay; assay type: functional; settings: time 18-24 hrs
HEK-293T = assay: Cytotoxicity against human HEK293T cells assessed as cell death measured after 18 to 24 hrs by MTT assay; assay type: functional; settings: time 18-24 hrs

Row | Structure (SMILES) | MIC (Escherichia coli [1]) | MIC (Escherichia coli [2]) | MIC (Escherichia coli [3]) | MIC (Salmonella typhimurium [4]) | MIC (Salmonella typhimurium [5]) | MIC (Pseudomonas aeruginosa) | MIC (Staphylococcus aureus [6]) | MIC (Enterococcus faecalis) | MIC (Staphylococcus aureus [7]) | MIC (Staphylococcus aureus [8]) | MIC [9] | HC10 [10] | IC10 [11] | IC10 (RAW264.7) | IC10 (HEK-293T)
1 | CCCCCCCCCC(=O)NCCCC[C@H](NC(=O)[C@@H](N)CS)C(=O)NCC(=O)NCC(=O)NCC(=O)N[C@H](CCCNC(=N)N)C(=O)N[C@@H](CCCNC(=N)N)C(=O)N[C@@H](CCCNC(=N)N)C(=O)N1CCC[C@H]1C(=O)O | 32 µM (≈ 36.5 µg/mL) | 32 µM (≈ 36.5 µg/mL) | 32 µM (≈ 36.5 µg/mL) | 64 µM (≈ 73 µg/mL) | 32 µM (≈ 36.5 µg/mL) | 16 µM (≈ 18.2 µg/mL) | 64 µM (≈ 73 µg/mL) | 64 µM (≈ 73 µg/mL) | 64 µM (≈ 73 µg/mL) | 64 µM (≈ 73 µg/mL) | 128 µM (≈ 146 µg/mL) | 256 µM | 256 µM | 256 µM | 256 µM
2 | CCCCCCCCCCCC(=O)NCCCC[C@H](N)C(=O)NCC(=O)NCC(=O)NCC(=O)N[C@H](CCCNC(=N)N)C(=O)N[C@@H](CCCNC(=N)N)C(=O)N[C@@H](CCCNC(=N)N)C(=O)N1CCC[C@H]1C(=O)N[C@@H](CS)C(=O)O | 16 µM (≈ 18.7 µg/mL) | 32 µM (≈ 37.4 µg/mL) | 32 µM (≈ 37.4 µg/mL) | 32 µM (≈ 37.4 µg/mL) | 64 µM (≈ 74.8 µg/mL) | 16 µM (≈ 18.7 µg/mL) | 64 µM (≈ 74.8 µg/mL) | 32 µM (≈ 37.4 µg/mL) | 64 µM (≈ 74.8 µg/mL) | 64 µM (≈ 74.8 µg/mL) | 64 µM (≈ 74.8 µg/mL) | 64 µM | 32 µM | 64 µM | 128 µM
3 | CCCCCCCCCCCC(=O)NCCCC[C@H](NC(=O)[C@@H](N)CSSC[C@H](N)C(=O)N[C@@H](CCCCNC(=O)CCCCCCCCCCC)C(=O)NCC(=O)NCC(=O)NCC(=O)N[C@H](CCCNC(=N)N)C(=O)N[C@@H](CCCNC(=N)N)C(=O)N[C@@H](CCCNC(=N)N)C(=O)N1CCC[C@H]1C(=O)O)C(=O)NCC(=O)NCC(=O)NCC(=O)N[C@H](CCCNC(=N)N)C(=O)N[C@@H](CCCNC(=N)N)C(=O)N[C@@H](CCCNC(=N)N)C(=O)N1CCC[C@H]1C(=O)O | 4 µM (≈ 9.34 µg/mL) | 16 µM (≈ 37.4 µg/mL) | 32 µM (≈ 74.7 µg/mL) | 32 µM (≈ 74.7 µg/mL) | 16 µM (≈ 37.4 µg/mL) | 8 µM (≈ 18.7 µg/mL) | 16 µM (≈ 37.4 µg/mL) | 16 µM (≈ 37.4 µg/mL) | 32 µM (≈ 74.7 µg/mL) | 18 µM (≈ 42 µg/mL) | 16 µM (≈ 37.4 µg/mL) | 128 µM | 128 µM | 128 µM | 128 µM
4 | CCCCCCCCCCCC(=O)NCCCC[C@H](N)C(=O)NCC(=O)NCC(=O)NCC(=O)N[C@H](CCCNC(=N)N)C(=O)N[C@@H](CCCNC(=N)N)C(=O)N[C@@H](CCCNC(=N)N)C(=O)N1CCC[C@H]1C(=O)N[C@@H](CSSC[C@H](NC(=O)[C@@H]1CCCN1C(=O)[C@H](CCCNC(=N)N)NC(=O)[C@H](CCCNC(=N)N)NC(=O)[C@@H](CCCNC(=N)N)NC(=O)CNC(=O)CNC(=O)CNC(=O)[C@@H](N)CCCCNC(=O)CCCCCCCCCCC)C(=O)O)C(=O)O | 8 µM (≈ 18.7 µg/mL) | 16 µM (≈ 37.4 µg/mL) | 32 µM (≈ 74.7 µg/mL) | 32 µM (≈ 74.7 µg/mL) | 32 µM (≈ 74.7 µg/mL) | 8 µM (≈ 18.7 µg/mL) | 32 µM (≈ 74.7 µg/mL) | 32 µM (≈ 74.7 µg/mL) | 32 µM (≈ 74.7 µg/mL) | 32 µM (≈ 74.7 µg/mL) | 32 µM (≈ 74.7 µg/mL) | 64 µM | 32 µM | 64 µM | 128 µM
5 | CCCCCCCCCC(=O)NCCCC[C@H](N)C(=O)NCC(=O)NCC(=O)NCC(=O)N[C@H](CCCNC(=N)N)C(=O)N[C@@H](CCCNC(=N)N)C(=O)N[C@@H](CCCNC(=N)N)C(=O)N1CCC[C@H]1C(=O)N[C@@H](CS)C(=O)O | 16 µM (≈ 18.2 µg/mL) | 16 µM (≈ 18.2 µg/mL) | 16 µM (≈ 18.2 µg/mL) | 32 µM (≈ 36.5 µg/mL) | 16 µM (≈ 18.2 µg/mL) | 8 µM (≈ 9.12 µg/mL) | 32 µM (≈ 36.5 µg/mL) | 32 µM (≈ 36.5 µg/mL) | 32 µM (≈ 36.5 µg/mL) | 32 µM (≈ 36.5 µg/mL) | 32 µM (≈ 36.5 µg/mL) | 256 µM | 256 µM | 256 µM | 256 µM
